≈ marks a conversion by molar mass, not a printed value. Like-named read-outs stand apart in the source and are kept apart here.
B1: Mycobacterium tuberculosis CYP121 (Rv2276), His6-tagged construct (enzyme)
chain: MTATVLLEVPFSARGDRIPDAVAELRTREPIRKVRTITGAEAWLVSSYALCTQVLEDRRFSMKETAAAGAPRLNALTVPPEVVNNMGNIADAGLRKAVMKAITPKAPGLEQFLRDTANSLLDNLITEGAPADLRNDFADPLATALHCKVLGIPQEDGPKLFRSLSIAFMSSADPIPAAKINWDRDIEYMAGILENPNITTGLMGELSRLRKDPAYSHVSDELFATIGVTFFGAGVISTGSFLTTALISLIQRPQLRNLLHEKPELIPAGVEELLRINLSFADGLPRLATADIQVGDVLVRKGELVLVLLEGANFDPEHFPNPGSIELDRPNPTSHLAFGRGQHFCPGSALGRRHAQIGIEALLKKMPGVDLAVPIDQLVWRTRFQRRIPERLPVLW

Tests used:
CYP121 [1] = biological target: T1, CYP121 (Mycobacterium tuberculosis, UniProt P9WPP7); type: binding
CYP121 [2] = biological target: T1, CYP121; assay: Single shot UV–vis absorbance assay (Soret band shift, competition with type II inhibitor) on CYP121; type: binding; conditions: for Binding Mode, CYP121: analogues 100 μM or 1 mM, P450 2.5–5 μM
CYP125 = biological target: T2, CYP125 (Mycobacterium tuberculosis, UniProt P9WPP1); assay: Single shot UV–vis binding mode assay on CYP125
T2 sequence (P9WPP1 1-433): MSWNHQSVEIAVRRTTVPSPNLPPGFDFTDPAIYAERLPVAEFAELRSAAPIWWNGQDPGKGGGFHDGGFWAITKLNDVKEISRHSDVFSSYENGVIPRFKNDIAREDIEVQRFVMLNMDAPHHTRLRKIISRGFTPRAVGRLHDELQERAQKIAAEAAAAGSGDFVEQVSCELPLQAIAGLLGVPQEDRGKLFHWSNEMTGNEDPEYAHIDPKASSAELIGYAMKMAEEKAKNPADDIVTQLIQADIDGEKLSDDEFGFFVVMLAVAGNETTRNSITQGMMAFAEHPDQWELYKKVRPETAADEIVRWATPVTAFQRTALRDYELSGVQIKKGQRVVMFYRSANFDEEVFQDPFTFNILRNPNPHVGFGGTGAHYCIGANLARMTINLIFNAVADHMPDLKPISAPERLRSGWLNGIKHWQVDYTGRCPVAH

CYP143 = biological target: T3, CYP143 (Mycobacterium tuberculosis, UniProt P9WPL3); assay: Single shot UV–vis binding mode assay on CYP143; conditions: analogues 100 μM or 1 mM, P450 2.5–5 μM
T3 construct: made in house
T3 sequence (P9WPL3 whole entry): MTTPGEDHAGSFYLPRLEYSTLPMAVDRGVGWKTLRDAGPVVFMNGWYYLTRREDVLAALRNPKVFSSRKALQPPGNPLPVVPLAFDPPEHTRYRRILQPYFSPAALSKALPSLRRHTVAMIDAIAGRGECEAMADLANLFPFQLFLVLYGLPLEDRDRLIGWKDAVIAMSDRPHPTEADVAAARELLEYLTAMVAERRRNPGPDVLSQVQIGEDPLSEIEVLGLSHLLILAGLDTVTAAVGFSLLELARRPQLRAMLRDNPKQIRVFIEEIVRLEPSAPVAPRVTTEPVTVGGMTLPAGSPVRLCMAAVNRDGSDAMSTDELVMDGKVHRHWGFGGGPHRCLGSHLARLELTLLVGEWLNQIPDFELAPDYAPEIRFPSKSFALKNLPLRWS
Protocol: UV–vis screening was performed using a CARY400 UV–vis spectrophotometer (Varian, CA, USA). Ligands were prepared as DMSO-d6 stock solutions (1–100 mM) and added to protein (5 μM) solutions (198 μL) or to buffer alone to give a final DMSO-d6 concentration of 1% v/v. CYP121 was prepared in 50 mM Tris-HCl (pH 7.2), 1 mM EDTA buffer. CYP125, CYP126, CYP142, CYP143, and CYP144 were prepared in 50 mM Tris-HCl (pH 7.5), 100 mM KCl buffer. CYP124 was prepared in 100 mM potassium phosphate (pH 7.0), 100 mM KCl buffer. Spectra were recorded between 800 and 250 nm at 25 °C. Any spectral interference from the inherent absorbance of added ligands/solvent was removed by subtracting spectra collected for protein-free samples of the same ligands/solvent in buffer. The difference in Soret wavelength maximum (Δλmax) of the respective P450s Soret band (λmax) in the presence of ligands compared to that obtained for a 1% v/v DMSO-d6 control was used to identify type I or type II heme-binding interactions. […]
The difference in the red-shift of the Soret band between competition assays and that found for the known type II ligand in the absence of competing ligands was used to determine competitive binding. Buffer control spectra were collected to account for any inherent absorbance of added ligands/solvent and all solutions were inspected and found to be free of precipitate. […]

Mtb H37Rv = assay: Antimycobacterial activity assay (MIC90); type: cell-based, Mycobacterium tuberculosis; set-up: key to MIC90: “N” indicates that compounds did not produce any significant cell death within the tested concentration range; conditions: triplicate, 0–100 μM, 2 weeks
CYP144TR = biological target: T4, CYP144TR (Mycobacterium tuberculosis, UniProt P9WPL1)
T4 sequence (P9WPL1 31-434 limits assumed): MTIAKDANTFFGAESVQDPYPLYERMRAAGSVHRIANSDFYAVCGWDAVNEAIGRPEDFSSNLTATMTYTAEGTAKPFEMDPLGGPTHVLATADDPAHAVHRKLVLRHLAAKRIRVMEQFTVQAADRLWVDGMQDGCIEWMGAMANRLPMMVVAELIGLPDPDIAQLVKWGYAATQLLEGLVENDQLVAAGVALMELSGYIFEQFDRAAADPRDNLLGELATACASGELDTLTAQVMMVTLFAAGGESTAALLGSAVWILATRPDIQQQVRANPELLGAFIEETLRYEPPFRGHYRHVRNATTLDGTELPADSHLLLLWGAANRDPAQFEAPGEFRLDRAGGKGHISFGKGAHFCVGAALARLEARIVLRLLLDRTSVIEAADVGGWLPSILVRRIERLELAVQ

CYP121 [3] = biological target: T1, CYP121; assay: Native mass spectrometry of CYP121 with ligands; type: binding
CYP1A = assay: Human P450 inhibition in human liver microsomes, CYP1A (ethoxyresorufin); conditions: IC50 for CYP1A versus CYP121 KD
[4] = tested on: CYP1A (combined CYP1A1 and CYP1A2); assay: as above; conditions: human
native MS = biological target: the molecule itself; assay: native MS

Molecule	Binding Mode, CYP121 (CYP121 [2])	Binding Mode, CYP125 (CYP125)	Binding Mode, CYP143 (CYP143)	MIC90 (Mtb H37Rv)	Binding Mode, CYP144TR (CYP144TR)	LE (ligand efficiency) (CYP121 [1])	Monomer (%) of CYP121 (CYP121 [3]; Protein-Ligand Ratio 1:0.5) [%]	ligand binding stoichiometry, CYP121 Dimer (CYP121 [3]; Protein-Ligand Ratio 1:0.5)	ligand binding stoichiometry, CYP121 Monomer (CYP121 [3]; Protein-Ligand Ratio 1:0.5)	Monomer (%) of CYP121 (CYP121 [3]; Protein-Ligand Ratio 1:1) [%]	ligand binding stoichiometry, CYP121 Dimer (CYP121 [3]; Protein-Ligand Ratio 1:1)	ligand binding stoichiometry, CYP121 Monomer (CYP121 [3]; Protein-Ligand Ratio 1:1)	Monomer (%) of CYP121 (CYP121 [3]; Protein-Ligand Ratio 1:25) [%]	ligand binding stoichiometry, CYP121 Dimer (CYP121 [3]; Protein-Ligand Ratio 1:25)	ligand binding stoichiometry, CYP121 Monomer (CYP121 [3]; Protein-Ligand Ratio 1:25)	other results
Nc1[nH]nc(-c2ccc(O)cc2)c1-c1ccc(O)cc1 [compound 5, 4,4′-(5-Amino-1H-pyrazole-3,4-diyl)diphenol]	N	N	N	N	N	–	–	–	–	–	–	–	–	–	–	LE (ligand efficiency) (CYP121 [1]; Gibbs free energy of binding to CYP121 divided by number of heavy atoms (ΔG/HA)): 0.30
Oc1ccc(CNc2[nH]nc(-c3ccc(O)cc3)c2-c2ccc(O)cc2)cc1 [26a, 4,4′-(5-((4-Hydroxybenzyl)amino)-1H-pyrazole-3,4-diyl)diphenol]	N	–	N	N	N	0.25	14	1	0	29	1	0	14	2	1	app SR (IC50/KD) (CYP1A): >4
Nc1cccc(-c2cccc(-c3c(-c4ccc(O)cc4)n[nH]c3N)c2)c1 [25a, 4-(5-Amino-4-(3′-amino-[1,1′-biphenyl]-3-yl)-1H-pyrazol-3-yl)phenol]	–	N	–	–	N	0.41	14	1	1	13	2	1	0	2	1	shifts in the CYP121 optical spectrum (CYP121 [2]; UV–vis spectroscopy): type II shifts; Δλmax (type II shift) (CYP121 [2]; ligand 100 μM, CYP121): +5.0 nm; MIC90 (Mtb H37Rv; Mycobacterium tuberculosis, 336 h, read-out: MIC90): 100 µM (≈ 34.2 µg/mL); selectivity ratio [4]: ~15000
B1	–	–	–	–	–	–	–	–	–	–	–	–	–	–	–	stoichiometry N (native MS): 2

Reference: paper PMC4835159 (Journal of Medicinal Chemistry, 2016)
